# Data taken from BindingDB's records for patent US10213407 (The Procter & Gamble, 2019).
# Target: T1, Carnitine monooxygenase oxygenase/reductase subunit (Escherichia coli (strain K12), UniProt P0ABR7+P76254)
# T1 sequence (P0ABR7 whole entry): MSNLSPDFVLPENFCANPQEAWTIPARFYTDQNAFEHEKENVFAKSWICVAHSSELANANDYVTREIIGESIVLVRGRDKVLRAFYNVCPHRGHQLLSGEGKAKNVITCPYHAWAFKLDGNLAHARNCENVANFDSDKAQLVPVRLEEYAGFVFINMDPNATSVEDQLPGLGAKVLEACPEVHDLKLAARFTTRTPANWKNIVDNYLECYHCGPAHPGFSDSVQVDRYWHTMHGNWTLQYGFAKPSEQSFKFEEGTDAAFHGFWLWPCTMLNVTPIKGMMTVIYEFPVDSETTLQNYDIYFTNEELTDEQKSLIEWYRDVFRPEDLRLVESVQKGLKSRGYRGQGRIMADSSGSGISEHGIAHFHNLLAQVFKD
# T1 sequence (P76254 whole entry): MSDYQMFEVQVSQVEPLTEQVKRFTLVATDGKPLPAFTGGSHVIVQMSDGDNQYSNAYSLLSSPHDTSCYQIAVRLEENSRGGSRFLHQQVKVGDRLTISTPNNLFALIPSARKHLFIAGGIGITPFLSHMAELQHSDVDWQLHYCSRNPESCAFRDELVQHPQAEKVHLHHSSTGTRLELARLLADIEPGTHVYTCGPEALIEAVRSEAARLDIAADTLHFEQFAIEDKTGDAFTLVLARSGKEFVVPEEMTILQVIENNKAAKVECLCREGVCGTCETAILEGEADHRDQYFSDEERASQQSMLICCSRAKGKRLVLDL
# Experiment: BCA Protein Assay
# Text: Escherichia coli BL21*DE3 pET30a-Ec yeaWX #1 (Ec YeaWX) strain was generated as described below. The contiguous Escherichia coli coding sequence yeaW (equivalent to uniprot ID P0ABR7.1 (YeaW) (SEQ ID NO: 2)) and yeaX (equivalent to uniprot ID P76254.1 (YeaX) (SEQ ID NO: 3)) were PCR amplified from Escherichia coli strain K-12 substr. BW25113 genomic DNA. PCR primers (YeaW_Nde I_fwd2-SEQ ID NO: 4; YeaX_rev2-SEQ ID NO: 5) were designed to create a 5′ NdeI restriction site including the ATG start codon of yeaW and create a PstI restriction site just 3′ of the yeaX TAG stop codon.The bacteria were grown aerobically in 50 mL LB broth (Difco #244620; 10 g/L Tryptone, 5 g/L yeast extract, 10 g/L NaCl, 50 μg/mL kanamycin), in a 500 mL Erlenmeyer flask. The cultures were inoculated from glycerol stock of BL21*DE3 pET30a-Ec yeaWX #1 strain. Strains were cultured all day at 37° C. with 250 rpm shaking. Two 300 mL Minimal M9 Medium (6 g/L Na2HPO4, 3 g/L KH2PO4, 0.5 g/L NaCl, 1 g/L NH4Cl, 0.1 mM CaCl2, 1 mM MgSO4, 0.2% Dextrose, 1 mg/L Thiamine, 50 μg/mL kanamycin), in 1 L Erlenmeyer flasks, were inoculated with 5 mL of the LB broth day culture and cultured overnight at 37° C. with 250 rpm shaking. The overnight cultures were used to inoculate twelve 1 L cultures of Minimal M9 media in 2.8 L fluted Erlenmeyer flasks to an OD 600 nm of 0.05 (typically approximately 28 mLs), which were grown at 37° C. with 250 rpm shaking until an OD600 of approximately 0.4 was reached. Expression of YeaWX was induced with 1 mM IPTG and the induced cultures were further grown overnight at 37° C. with 250 rpm shaking. The biomass was pelleted by centrifugation at 6000×g for 12 minutes at 4° C. The cell pellet was suspended in 240 mL of ice-cold 1× Phosphate Buffered Saline (Ca2+ and Mg2+ free). […] Glycerol was added to the centrifuged lysate supernatant at a final concentration of 15% A protein concentration of the centrifuged lysate supernatant was determined by a BCA Protein Assay Kit (Pierce #23225), typically in the 2.5 to 4.5 mg/ml range. […]
row,Structure (SMILES),IC50 [µM]
1,"CCOC(=O)C[N+](C)(C)CCN=C=S [US10213407, ID 4]",300
2,"C[N+](C)(CC#N)CCN=C=S [US10213407, ID 8]",210
3,"CCOC(=O)C[N+](CC)(CC)CCCN=C=S [US10213407, ID 3]",220
